{"source": "patent US9802960B2", "about": "(MILLENNIUM PHARMACEUTICALS, INC., priority 2014, dated 2017)"}
{"target": "Human VPS34 (Homo sapiens (Human), UniProt Q8NEB9)", "sequence (Q8NEB9 whole entry)": "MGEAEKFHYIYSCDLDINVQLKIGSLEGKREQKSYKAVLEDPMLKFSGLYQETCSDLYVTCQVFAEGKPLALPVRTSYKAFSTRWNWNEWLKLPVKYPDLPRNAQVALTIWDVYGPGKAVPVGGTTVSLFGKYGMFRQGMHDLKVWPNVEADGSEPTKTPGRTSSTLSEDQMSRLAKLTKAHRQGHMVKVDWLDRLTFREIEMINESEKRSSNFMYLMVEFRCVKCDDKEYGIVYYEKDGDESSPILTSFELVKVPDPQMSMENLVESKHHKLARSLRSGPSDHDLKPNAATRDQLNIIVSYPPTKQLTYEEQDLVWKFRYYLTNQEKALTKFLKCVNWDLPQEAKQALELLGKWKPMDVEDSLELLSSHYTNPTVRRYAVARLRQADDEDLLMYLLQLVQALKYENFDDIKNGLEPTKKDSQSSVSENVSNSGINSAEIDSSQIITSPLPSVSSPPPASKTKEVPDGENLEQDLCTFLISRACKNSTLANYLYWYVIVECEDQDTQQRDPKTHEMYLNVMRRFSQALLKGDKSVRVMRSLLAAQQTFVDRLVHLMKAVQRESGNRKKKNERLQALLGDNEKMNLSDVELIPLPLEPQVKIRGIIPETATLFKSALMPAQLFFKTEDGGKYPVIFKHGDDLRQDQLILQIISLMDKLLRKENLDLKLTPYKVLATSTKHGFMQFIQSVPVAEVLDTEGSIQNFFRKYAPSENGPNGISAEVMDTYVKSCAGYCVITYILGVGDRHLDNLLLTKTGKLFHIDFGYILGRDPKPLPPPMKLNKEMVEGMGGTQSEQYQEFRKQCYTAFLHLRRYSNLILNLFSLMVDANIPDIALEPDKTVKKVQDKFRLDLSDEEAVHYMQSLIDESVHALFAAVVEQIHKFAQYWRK", "experiment": "Human VPS34 enzyme assay (Adapta TR-FRET)", "assay_type": "biochemical", "conditions": "IC50 range class", "units": {"IC50": "nM"}}
{"smiles": "Cc1cccc(Nc2cc(-c3cnc(C)c(NS(=O)(=O)c4ccc(F)cc4F)c3)ccn2)n1", "note": "[Compound I-276, 2,4-difluoro-N-{6-methyl-2′-[(6-methylpyridin-2-yl)amino]-3,4′-bipyridin-5-yl}benzenesulfonamide]", "IC50": "< 10"}
{"smiles": "CC(=O)Nc1cc(-c2cnc(N)c(S(=O)(=O)NC(C)C)c2)ccn1", "note": "[Compound I-7, N-[6-amino-5-(isopropylsulfamoyl)-3,4′-bipyridin-2′-yl]acetamide]", "IC50": "< 10"}
{"target": "Human VPS34 (Homo sapiens (Human), UniProt Q8NEB9)", "experiment": "Human VPS34 enzyme assay (Adapta TR-FRET)", "assay_type": "biochemical", "conditions": "compound concentration 1.11 μM; read-out: Percent Inhibition", "units": {"inhibition at 1.11 µM": "%"}}
{"smiles": "CC(=O)Nc1cc(-c2cnc(C)c(NC(C)=O)c2)ccn1", "note": "[Compound I-193, N,N′-(6-methyl-3,4′-bipyridine-2′,5-diyl)diacetamide]", "inhibition at 1.11 µM": "> 99"}
{"smiles": "CC(=O)Nc1cc(-c2cnc(N(C)C)c(C(=O)N(C)C)c2)ccn1", "note": "[Compound I-162, 2′-acetamido-6-(dimethylamino)-N,N-dimethyl-3,4′-bipyridine-5-carboxamide]", "inhibition at 1.11 µM": "> 99"}
{"smiles": "CC(=O)Nc1cc(-c2cnc(N)c(S(=O)(=O)O)c2)ccn1", "note": "[Compound I-122, 2′-acetamido-6-amino-3,4′-bipyridine-5-sulfonic acid]", "inhibition at 1.11 µM": "> 99"}
{"smiles": "CC(=O)Nc1cc(-c2cnc(C)c(NS(=O)(=O)N3CCCCC3)c2)ccn1", "note": "[Compound I-214, N-{6-methyl-5-[(piperidin-1-ylsulfonyl)amino]-3,4′-bipyridin-2′-yl}acetamide]", "inhibition at 1.11 µM": "> 99"}
{"smiles": "CC(=O)Nc1cc(-c2cnc(C)c(Nc3nc4ccccc4o3)c2)ccn1", "note": "[Compound I-392, N-[5-(1,3-benzoxazol-2-ylamino)-6-methyl-3,4′-bipyridin-2′-yl]acetamide]", "inhibition at 1.11 µM": 82}
{"smiles": "COC(=O)Nc1cc(-c2cnc(C)c(NS(=O)(=O)c3ccc(Cl)cc3F)c2)ccn1", "note": "[Compound I-417, methyl (5-{[(4-chloro-2-fluorophenyl)sulfonyl]amino}-6-methyl-3,4′-bipyridin-2′-yl)carbamate]", "inhibition at 1.11 µM": "> 99"}
{"smiles": "CC(=O)Nc1cc(-c2cnc3c(c2)N(CC2CC2)S(=O)(=O)N3)ccn1", "note": "[Compound I-29, N-{4-[1-(cyclopropylmethyl)-2,2-dioxido-1,3-dihydro[1,2,5]thiadiazolo[3,4-b]pyridin-6-yl]pyridin-2-yl}acetamide]", "inhibition at 1.11 µM": "> 99"}
{"smiles": "CC(=O)Nc1cc(-c2cnc(C)c(NS(=O)(=O)c3ccc(F)cc3)c2)ccn1", "note": "[Compound I-185, N-(5-{[(4-fluorophenyl)sulfonyl]amino}-6-methyl-3,4′-bipyridin-2′-yl)acetamide]", "inhibition at 1.11 µM": "> 99"}
{"smiles": "CC(=O)Nc1cc(-c2cncc(N(C)C(=O)c3ccc(F)cc3F)c2)ccn1", "note": "[Compound I-397, N-(2′-acetamido-3,4′-bipyridin-5-yl)-2,4-difluoro-N-methylbenzamide]", "inhibition at 1.11 µM": 100}
{"smiles": "CC(=O)Nc1cc(-c2cncc(S(=O)(=O)N3CCCC3)c2)ccn1", "note": "[Compound I-47, N-[5-(pyrrolidin-1-ylsulfonyl)-3,4′-bipyridin-2′-yl]acetamide]", "inhibition at 1.11 µM": "> 99"}
{"smiles": "Cc1nccc(Nc2cc(-c3cc(NC(=O)N4CC(F)(F)C4)c4ccnn4c3)ccn2)n1", "note": "[Compound I-407, 3,3-difluoro-N-(6-{2-[(2-methylpyrimidin-4-yl)amino]pyridin-4-yl}pyrazolo[1,5-a]pyridin-4-yl)azetidine-1-carboxamide]", "inhibition at 1.11 µM": 98}
{"smiles": "CNC1CN(c2cc(-c3ccnc(NC(C)=O)c3)cnc2C)S(=O)(=O)C1", "note": "(stereo not drawn) [Compound I-325, N-{6-methyl-5-[4-(methylamino)-1,1-dioxidoisothiazolidin-2-yl]-3,4′-bipyridin-2′-yl}acetamide]", "inhibition at 1.11 µM": "> 99"}
{"smiles": "Cc1nccc(Nc2cc(-c3cnc(C)c(OC(C)C)c3)ccn2)n1", "note": "[Compound I-446, 5-isopropoxy-6-methyl-N-(2-methylpyrimidin-4-yl)-3,4′-bipyridin-2′-amine]", "inhibition at 1.11 µM": "> 99"}
{"smiles": "Cc1nccc(Nc2cc(-c3cnc(C)c(C(=O)N4CCCC4)c3)ccn2)n1", "note": "[Compound I-315, {6-methyl-2′-[(2-methylpyrimidin-4-yl)amino]-3,4′-bipyridin-5-yl}(pyrrolidin-1-yl)methanone]", "inhibition at 1.11 µM": 92}
{"smiles": "CC(=O)Nc1cc(-c2cncc(N(CCO)S(=O)(=O)c3ccc(F)cc3F)c2)ccn1", "note": "[Compound I-384, N-(5-{[(2,4-difluorophenyl)sulfonyl](2-hydroxyethyl)amino}-3,4′-bipyridin-2′-yl)acetamide]", "inhibition at 1.11 µM": 73}
{"smiles": "Cc1nccc(Nc2cc(-c3cncc(C(C)OCc4ccccn4)c3)ccn2)n1", "note": "(stereo not drawn) [Compound I-349, N-(2-methylpyrimidin-4-yl)-5-[1-(pyridin-2-ylmethoxy)ethyl]-3,4′-bipyridin-2′-amine]", "inhibition at 1.11 µM": 94}
{"smiles": "COC(=O)Nc1cc(-c2cnc(C)c(N3CCCS3(=O)=O)c2)ccn1", "note": "[Compound I-146, methyl[5-(1,1-dioxidoisothiazolidin-2-yl)-6-methyl-3,4′-bipyridin-2′-yl]carbamate]", "inhibition at 1.11 µM": "> 99"}
{"smiles": "CC(=O)Nc1cc(-c2cnc(C)c(NS(=O)(=O)c3ccc(C)cc3F)c2)c(C)cn1", "note": "[Compound I-130, N-(5-{[(2-fluoro-4-methylphenyl)sulfonyl]amino}-5′,6-dimethyl-3,4′-bipyridin-2′-yl)acetamide]", "inhibition at 1.11 µM": "> 99"}
{"smiles": "CC(=O)Nc1cc(-c2cnc(C)c(C(=O)N(C)c3ccc(F)cc3F)c2)ccn1", "note": "[Compound I-485, 2′-acetamido-N-(2,4-difluorophenyl)-N,6-dimethyl-3,4′-bipyridine-5-carboxamide]", "inhibition at 1.11 µM": 100}
{"smiles": "CC(=O)Nc1cc(-c2cnc(Cl)c(N3CCCN(C)S3(=O)=O)c2)ccn1", "note": "[Compound I-467, N-[6-chloro-5-(6-methyl-1,1-dioxido-1,2,6-thiadiazinan-2-yl)-3,4′-bipyridin-2′-yl]acetamide]", "inhibition at 1.11 µM": "> 99"}
{"smiles": "CC(=O)Nc1cc(-c2cnc(C)c(N(C)S(=O)(=O)C3CC3)c2)ccn1", "note": "[Compound I-212, N-{5-[(cyclopropylsulfonyl)(methyl)amino]-6-methyl-3,4′-bipyridin-2′-yl}acetamide]", "inhibition at 1.11 µM": 95}
{"smiles": "CC(=O)Nc1cc(-c2cncc(C(=O)N(C)C)c2)ccn1", "note": "[Compound I-48, 2′-acetamido-N,N-dimethyl-3,4′-bipyridine-5-carboxamide]", "inhibition at 1.11 µM": "> 99"}
{"smiles": "Cc1cccc(Nc2cc(-c3cnc(C)c(NS(=O)(=O)c4ccc(F)cc4F)c3)ccn2)n1", "note": "[Compound I-276, 2,4-difluoro-N-{6-methyl-2′-[(6-methylpyridin-2-yl)amino]-3,4′-bipyridin-5-yl}benzenesulfonamide]", "inhibition at 1.11 µM": 96}
{"smiles": "CC(=O)Nc1cc(-c2cnc(N)c(S(=O)(=O)NC(C)C)c2)ccn1", "note": "[Compound I-7, N-[6-amino-5-(isopropylsulfamoyl)-3,4′-bipyridin-2′-yl]acetamide]", "inhibition at 1.11 µM": "> 99"}
{"smiles": "CC(=O)Nc1cc(-c2cnc(C)c(N3CC(N(C)C)CS3(=O)=O)c2)ccn1", "note": "(single isomer, unassigned) [Compound I-497, (R or S)—N-(5-(4-(dimethylamino)-1,1-dioxidoisothiazolidin-2-yl)-6-methyl-[3,4′-bipyridin]-2′-yl)acetamide]", "inhibition at 1.11 µM": "> 99"}
{"smiles": "COc1ncc(-c2ccnc(NC(C)=O)c2)cc1S(=O)(=O)Nc1cc(Cl)ccc1Cl", "note": "[Compound I-432, N-{5-[(2,5-dichlorophenyl)sulfamoyl]-6-methoxy-3,4′-bipyridin-2′-yl}acetamide]", "inhibition at 1.11 µM": 98}
{"smiles": "Cc1nccc(Nc2cc(-c3cnc(C)c(OC4CCCC4)c3)ccn2)n1", "note": "[Compound I-471, 5-(cyclopentyloxy)-6-methyl-N-(2-methylpyrimidin-4-yl)-3,4′-bipyridin-2′-amine]", "inhibition at 1.11 µM": 98}
{"smiles": "CC(=O)Nc1cc(-c2cnc(N)c(S(=O)(=O)Nc3ccc(F)cc3F)c2)ccn1", "note": "[Compound I-170, N-{6-amino-5-[(2,4-difluorophenyl)sulfamoyl]-3,4′-bipyridin-2′-yl}acetamide]", "inhibition at 1.11 µM": "> 99"}
{"smiles": "Cc1ncc(-c2ccnc(Nc3ncccn3)c2)cc1NS(=O)(=O)c1ccc(F)cc1F", "note": "[Compound I-265, 2,4-difluoro-N-[6-methyl-2′-(pyrimidin-2-ylamino)-3,4′-bipyridin-5-yl]benzenesulfonamide]", "inhibition at 1.11 µM": "> 99"}
{"smiles": "Cc1ncc(-c2ccnc(Nc3ccncn3)c2)cc1NS(=O)(=O)c1ccc(F)cc1F", "note": "[Compound I-239]", "inhibition at 1.11 µM": "> 99"}
{"smiles": "Cc1nccc(Nc2cc(-c3cnc(C)c(NS(=O)(=O)N(C)C)c3)ccn2)n1", "note": "[Compound I-286, N,N-dimethyl-N-{6-methyl-2′-[(2-methylpyrimidin-4-yl)amino]-3,4′-bipyridin-5-yl}sulfuric diamide]", "inhibition at 1.11 µM": "> 99"}
{"smiles": "COc1ncc(-c2ccnc(NC(C)=O)c2)cc1S(=O)(=O)Nc1ccc(F)cc1F", "note": "[Compound I-107, N-{5-[(2,4-difluorophenyl)sulfamoyl]-6-methoxy-3,4′-bipyridin-2′-yl}acetamide]", "inhibition at 1.11 µM": "> 99"}
{"smiles": "CC(=O)Nc1cc(-c2cnc(C)c(NS(=O)(=O)c3ccc(C(F)(F)F)cc3Cl)c2)ccn1", "note": "[Compound I-196, N-[5-({[2-chloro-4-(trifluoromethyl)phenyl]sulfonyl}amino)-6-methyl-3,4′-bipyridin-2′-yl]acetamide]", "inhibition at 1.11 µM": "> 99"}
{"smiles": "CC(=O)Nc1cc(-c2cncc(NS(=O)(=O)c3ccc(F)cc3F)c2C)ccn1", "note": "[Compound I-102, N-(5-{[(2,4-difluorophenyl)sulfonyl]amino}-4-methyl-3,4′-bipyridin-2′-yl)acetamide]", "inhibition at 1.11 µM": "> 99"}
{"smiles": "CC(=O)Nc1cc(-c2cnc(C)c(N(C)S(=O)(=O)c3ccccc3)c2)ccn1", "note": "[Compound I-46, N-{6-methyl-5-[methyl(phenylsulfonyl)amino]-3,4′-bipyridin-2′-yl}acetamide]", "inhibition at 1.11 µM": "> 99"}
{"smiles": "Cc1nccc(Nc2cc(-c3cncc(C(C)Oc4ccccc4Cl)c3)ccn2)n1", "note": "(stereo not drawn) [Compound I-336, 5-[1-(2-chlorophenoxy)ethyl]-N-(2-methylpyrimidin-4-yl)-3,4′-bipyridin-2′-amine]", "inhibition at 1.11 µM": 96}
{"smiles": "CC(=O)Nc1cc(-c2cnc(N)c(S(=O)(=O)Cc3cccnc3)c2)ccn1", "note": "[Compound I-205, N-{6-amino-5-[(pyridin-3-ylmethyl)sulfonyl]-3,4′-bipyridin-2′-yl}acetamide]", "inhibition at 1.11 µM": "> 99"}
{"smiles": "CC(=O)Nc1cc(-c2cnc(C)c(C(=O)N(C)C)c2)ccn1", "note": "[Compound I-75, 2′-acetamido-N,N,6-trimethyl-3,4′-bipyridine-5-carboxamide]", "inhibition at 1.11 µM": "> 99"}
{"smiles": "Cc1nccc(Nc2cc(-c3cnc(C)c(C(=O)N4CC(C)(C)C4)c3)ccn2)n1", "note": "[Compound I-495, (3,3-dimethylazetidin-1-yl){6-methyl-2′-[(2-methylpyrimidin-4-yl)amino]-3,4′-bipyridin-5-yl}methanone]", "inhibition at 1.11 µM": 83}
{"smiles": "CC(=O)Nc1cc(-c2cnc(N)c(S(=O)(=O)Cc3ccccc3F)c2)ccn1", "note": "[Compound I-197, N-{6-amino-5-[(2-fluorobenzyl)sulfonyl]-3,4′-bipyridin-2′-yl}acetamide]", "inhibition at 1.11 µM": "> 99"}
